The results in this text go back to US9341616B2, “Sweet taste receptor chimeric proteins and use thereof” (AJINOMOTO CO., INC., priority 2014, dated 2016).

The target of one test is h-mT1R2-481/mT1R3 (UniProt Q8TE23+Q925D8, A537S/A564V/A568V/A570T/A649T/A658V/A782V/E530V/E534N/E542M/E548N/F525Y/F665L/G696N/G701T/H484Y/H528R/I481V/I486P/I490V/I510L/I518V/I595M/I643V/I645L/I692L/I695G/K504M/K626T/K714N/L521P/L571I/L578I/L610P/L631F/L636F/L639V/L688V/L702I/L734M/L800F/M492I/M616G/M682V/M690V/M748V/N540G/N541S/N721H/P638T/P824S/Q536L/Q546K/Q555R/Q676H/R498S/R667S/S501P/S547N/S550A/S628F/S663R/S670G/S681F/S703N/S727G/S784D/S804G/T529S/T549I/T609V/T629S/T642S/T705I/T706G/T716I/V508I/V512P/V557A/V585L/V613L/V617M/V673M/V687A/V691A/V694A/V718L/V741L/V774I/V791M/Y533F/Y615F/Y671F/Y769S/Y783H). Conditions: genes h-mT481/mT3 (h-mT1R2-481, mT1R3), HEK293E cells.

For another test, the target named is h-mT1R2-471/mT1R3 (UniProt Q8TE23+Q925D8, A537S/A564V/A568V/A570T/A649T/A658V/A782V/D480N/E530V/E534N/E542M/E548N/F525Y/F665L/G696N/G701T/H484Y/H528R/I481V/I486P/I490V/I510L/I518V/I595M/I643V/I645L/I692L/I695G/K476T/K504M/K626T/K714N/L471T/L521P/L571I/L578I/L610P/L631F/L636F/L639V/L688V/L702I/L734M/L800F/M492I/M616G/M682V/M690V/M748V/N477Y/N540G/N541S/N721H/P638T/P824S/Q472E/Q474R/Q479S/Q536L/Q546K/Q555R/Q676H/R473T/R498S/R667S/S501P/S547N/S550A/S628F/S663R/S670G/S681F/S703N/S727G/S784D/S804G/T529S/T549I/T609V/T629S/T642S/T705I/T706G/T716I/V508I/V512P/V557A/V585L/V613L/V617M/V673M/V687A/V691A/V694A/V718L/V741L/V774I/V791M/Y533F/Y615F/Y671F/Y769S/Y783H). The settings on record: Table 4; genes h-mT471/mT3 (h-mT1R2-471, mT1R3); HEK293E cells.

Like-named read-outs stand apart in the source and are kept apart here. Residues, ends and D or L forms follow the SMILES beside them.

Chain of h-mT1R2-481/mT1R3 (Q8TE23 with tags, fused parts or gaps with the stated changes limits assumed): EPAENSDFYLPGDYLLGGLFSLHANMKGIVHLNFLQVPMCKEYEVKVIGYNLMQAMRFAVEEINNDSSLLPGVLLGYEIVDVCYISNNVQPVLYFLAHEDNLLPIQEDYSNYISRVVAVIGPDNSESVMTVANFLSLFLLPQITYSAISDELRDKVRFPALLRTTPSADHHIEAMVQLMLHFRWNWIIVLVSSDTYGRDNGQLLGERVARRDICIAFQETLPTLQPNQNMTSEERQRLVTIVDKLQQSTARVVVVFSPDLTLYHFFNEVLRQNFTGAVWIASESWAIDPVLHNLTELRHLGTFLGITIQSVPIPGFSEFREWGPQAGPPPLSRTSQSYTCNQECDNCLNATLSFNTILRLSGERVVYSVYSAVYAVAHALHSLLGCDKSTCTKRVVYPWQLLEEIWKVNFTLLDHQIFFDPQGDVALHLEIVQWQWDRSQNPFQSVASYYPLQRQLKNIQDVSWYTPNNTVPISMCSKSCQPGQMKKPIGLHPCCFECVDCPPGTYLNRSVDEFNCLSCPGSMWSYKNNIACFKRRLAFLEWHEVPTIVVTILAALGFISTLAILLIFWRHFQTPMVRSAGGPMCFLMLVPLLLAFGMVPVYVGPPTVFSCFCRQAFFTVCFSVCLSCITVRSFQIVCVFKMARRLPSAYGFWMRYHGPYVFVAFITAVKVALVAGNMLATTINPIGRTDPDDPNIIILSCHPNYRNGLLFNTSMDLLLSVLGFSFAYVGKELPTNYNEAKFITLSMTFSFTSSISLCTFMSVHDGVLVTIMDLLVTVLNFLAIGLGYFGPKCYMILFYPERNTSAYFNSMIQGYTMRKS
Chain of h-mT1R2-481/mT1R3 (Q925D8 21-858, stated change not applied): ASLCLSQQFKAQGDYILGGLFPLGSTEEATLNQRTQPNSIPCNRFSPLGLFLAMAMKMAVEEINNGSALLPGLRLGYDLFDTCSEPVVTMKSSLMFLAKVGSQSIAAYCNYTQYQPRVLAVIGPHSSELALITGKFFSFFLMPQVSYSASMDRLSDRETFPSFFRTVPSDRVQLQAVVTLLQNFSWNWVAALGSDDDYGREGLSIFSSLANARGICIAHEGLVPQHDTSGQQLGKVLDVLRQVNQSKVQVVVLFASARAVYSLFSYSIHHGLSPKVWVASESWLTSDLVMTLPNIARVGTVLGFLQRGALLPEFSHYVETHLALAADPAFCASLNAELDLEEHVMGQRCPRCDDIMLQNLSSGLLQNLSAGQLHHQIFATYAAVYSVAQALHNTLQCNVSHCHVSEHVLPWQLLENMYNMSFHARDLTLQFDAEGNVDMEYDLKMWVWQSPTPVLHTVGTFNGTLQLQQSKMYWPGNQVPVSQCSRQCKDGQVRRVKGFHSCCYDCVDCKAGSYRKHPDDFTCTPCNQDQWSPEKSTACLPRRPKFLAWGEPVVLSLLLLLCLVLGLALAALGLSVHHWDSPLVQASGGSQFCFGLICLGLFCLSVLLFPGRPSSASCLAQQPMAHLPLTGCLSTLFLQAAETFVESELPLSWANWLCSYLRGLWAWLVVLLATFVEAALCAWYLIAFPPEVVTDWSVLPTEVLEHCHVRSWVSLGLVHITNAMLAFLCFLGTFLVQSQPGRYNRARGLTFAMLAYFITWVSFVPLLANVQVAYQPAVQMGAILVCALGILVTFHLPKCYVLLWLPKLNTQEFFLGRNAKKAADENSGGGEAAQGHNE
Chain of h-mT1R2-471/mT1R3 (Q8TE23 with tags, fused parts or gaps with the stated changes limits assumed): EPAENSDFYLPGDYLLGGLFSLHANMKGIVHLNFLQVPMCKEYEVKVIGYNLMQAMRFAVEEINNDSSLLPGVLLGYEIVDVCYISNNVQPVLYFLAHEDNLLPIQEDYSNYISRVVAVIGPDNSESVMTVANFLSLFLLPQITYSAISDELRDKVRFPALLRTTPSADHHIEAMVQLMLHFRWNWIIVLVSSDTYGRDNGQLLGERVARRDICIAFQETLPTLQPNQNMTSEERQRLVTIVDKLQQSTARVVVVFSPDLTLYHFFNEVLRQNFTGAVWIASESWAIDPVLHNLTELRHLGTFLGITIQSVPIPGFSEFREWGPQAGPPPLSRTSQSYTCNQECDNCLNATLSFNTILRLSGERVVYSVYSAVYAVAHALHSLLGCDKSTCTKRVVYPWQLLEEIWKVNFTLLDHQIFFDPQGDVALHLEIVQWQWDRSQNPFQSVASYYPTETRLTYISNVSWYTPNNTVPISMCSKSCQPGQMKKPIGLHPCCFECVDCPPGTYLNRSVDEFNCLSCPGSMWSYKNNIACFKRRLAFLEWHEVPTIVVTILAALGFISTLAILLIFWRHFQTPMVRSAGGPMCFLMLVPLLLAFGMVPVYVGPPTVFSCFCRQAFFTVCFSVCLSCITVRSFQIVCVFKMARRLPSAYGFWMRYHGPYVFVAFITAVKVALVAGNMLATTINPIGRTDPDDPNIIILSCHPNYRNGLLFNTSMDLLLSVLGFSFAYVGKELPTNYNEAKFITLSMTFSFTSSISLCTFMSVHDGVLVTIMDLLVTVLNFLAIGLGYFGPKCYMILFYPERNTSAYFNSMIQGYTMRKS
Chain of h-mT1R2-471/mT1R3 (Q925D8 21-858, stated change not applied): as the sequence (Q925D8 21-858, stated change not applied) above

Regarding `CC1=CC(=O)NS(=O)(=O)O1` [Acesulfame K, acesulfame potassium], the figures for the S/N on h-mT1R2-481/mT1R3 (Table 3), at h-mT1R2-481/mT1R3 (Table 4) and at h-mT1R2-471/mT1R3 were 3.0, 3.7 and 3.1, respectively.

Regarding `COC(=O)[C@H](Cc1ccccc1)NC(=O)[C@H](CC(=O)O)NCCCc1ccc(OC)c(O)c1` [Advantame, advantame], the values for the S/N on h-mT1R2-481/mT1R3 (Table 3), at h-mT1R2-481/mT1R3 (Table 4) and on h-mT1R2-471/mT1R3 were 6.6, 7.1 and 5.5, respectively.

`COC(=O)[C@H](Cc1ccccc1)NC(=O)[C@@H](N)CC(=O)O` [Aspartame, aspartame] (HELM PEPTIDE1{D.F.[CO[*:1]]}$$$$V2.0): the S/N on h-mT1R2-481/mT1R3 (Table 3) was found to be 4.3; at h-mT1R2-481/mT1R3 (Table 4), 5.8; at h-mT1R2-471/mT1R3, 4.6.

Regarding `COC(=O)[C@H](Cc1ccccc1)NC(=O)[C@H](CC(=O)O)NCCC(C)(C)C` [Neotame, neotame], the S/N on h-mT1R2-481/mT1R3 (Table 3) turned out to be 5.4; at h-mT1R2-481/mT1R3 (Table 4), 5.4; on h-mT1R2-471/mT1R3, 4.4.

For the molecule `C[C@H](NC(=Nc1ccc(C#N)cc1)NCC(=O)O)c1ccccc1` [SC-45647, [3-[(S)-1-phenylethyl]-2-(4-cyanophenyl)guanidino]acetic acid], the results for the S/N on h-mT1R2-481/mT1R3 (Table 3), on h-mT1R2-481/mT1R3 (Table 4) and at h-mT1R2-471/mT1R3 were 5.1, 5.2 and 4.2, respectively.

With `O=C1NS(=O)(=O)c2ccccc21.[Na]` [Saccharin Na, sodium saccharin], the S/N on h-mT1R2-481/mT1R3 (Table 3) was 3.9; at h-mT1R2-481/mT1R3 (Table 4), 4.4; at h-mT1R2-471/mT1R3, 3.6.

Regarding `OC[C@H]1O[C@H](O[C@]2(CCl)O[C@H](CCl)[C@@H](O)[C@@H]2O)[C@H](O)[C@@H](O)[C@H]1Cl` [Sucralose, sucralose], the S/N on h-mT1R2-481/mT1R3 (Table 3) amounted to 5.0; on h-mT1R2-481/mT1R3 (Table 4), 5.7; on h-mT1R2-471/mT1R3, 4.6.

On to `OC[C@H]1O[C@@](CO)(O[C@H]2O[C@H](CO)[C@@H](O)[C@H](O)[C@H]2O)[C@@H](O)[C@@H]1O` [Sucrose, sucrose], for which the S/N at h-mT1R2-481/mT1R3 (Table 3) was 2.8; on h-mT1R2-481/mT1R3 (Table 4), 3.9; on h-mT1R2-471/mT1R3 it was 3.5.
